Columns and labels:
Type in all cases: cell-based
human A2A receptor = target: T1, human A2A receptor (Homo sapiens, UniProt P29274); assay: functional cAMP (HTRF) assay, recombinant HEK293 cells expressing human A2A receptor, agonist NECA
T1 construct: expressed in transfected cells; host or cells: HEK293

human A3 receptor = target: T2, human A3 receptor (Homo sapiens, UniProt P0DMS8); assay: functional cAMP (HTRF) assay, recombinant CHO cells expressing human A3 receptor, forskolin, agonist IB-MECA
T2 construct: expressed in transfected cells; host or cells: CHO
T2 sequence (P0DMS8 1-318): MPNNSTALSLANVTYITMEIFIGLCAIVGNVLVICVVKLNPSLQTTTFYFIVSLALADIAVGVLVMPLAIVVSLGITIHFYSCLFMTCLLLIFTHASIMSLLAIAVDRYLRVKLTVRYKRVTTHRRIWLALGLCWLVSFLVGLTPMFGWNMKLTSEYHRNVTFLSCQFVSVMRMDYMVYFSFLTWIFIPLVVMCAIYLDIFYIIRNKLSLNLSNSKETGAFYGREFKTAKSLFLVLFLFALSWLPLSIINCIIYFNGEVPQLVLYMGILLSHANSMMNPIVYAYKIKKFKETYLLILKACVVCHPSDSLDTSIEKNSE
Protocol: The functional activities of human A2A, A2B, A1 and A3 receptors were determined by quantification of cAMP, being the second messenger for adenosine receptors.
For human A1 and A3 receptors, recombinant CHO cells, expressing either A1 or A3-receptor, were used. As both receptors couple to Gi proteins, the assay protocol was adapted:
Cells were seeded into 384-well plates, forskolin, test compounds and agonists (CPA for A1- and IB-MECA for A3-receptor) were added. After 30 min incubation, HTRF reagents (cAMP dynamic 2, Cis Bio) were added and the cellular cAMP levels were determined using the ENVISION (Perkin Elmer) plate reader. Obtained raw data were normalized against the inhibitor control and the neural control (DMSO) and the normalized data were fitted using GeneData software.

A2B receptors = target: T3, A2B receptors (Homo sapiens, UniProt P29275); assay: functional cAMP (HTRF) assay, recombinant HEK293 cells expressing human A2B receptor, agonist NECA; parameters: expressed in transfected cells; host or cells: HEK293
T3 sequence (P29275 1-332): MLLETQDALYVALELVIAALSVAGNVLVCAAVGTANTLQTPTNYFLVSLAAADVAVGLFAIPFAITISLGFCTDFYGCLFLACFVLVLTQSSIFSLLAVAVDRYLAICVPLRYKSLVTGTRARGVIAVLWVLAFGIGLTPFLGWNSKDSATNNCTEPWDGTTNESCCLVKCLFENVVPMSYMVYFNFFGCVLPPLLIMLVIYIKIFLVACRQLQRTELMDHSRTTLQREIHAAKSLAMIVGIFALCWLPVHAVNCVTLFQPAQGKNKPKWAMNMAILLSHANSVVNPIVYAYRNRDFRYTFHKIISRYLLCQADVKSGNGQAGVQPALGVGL

T1 sequence (P29274 whole entry): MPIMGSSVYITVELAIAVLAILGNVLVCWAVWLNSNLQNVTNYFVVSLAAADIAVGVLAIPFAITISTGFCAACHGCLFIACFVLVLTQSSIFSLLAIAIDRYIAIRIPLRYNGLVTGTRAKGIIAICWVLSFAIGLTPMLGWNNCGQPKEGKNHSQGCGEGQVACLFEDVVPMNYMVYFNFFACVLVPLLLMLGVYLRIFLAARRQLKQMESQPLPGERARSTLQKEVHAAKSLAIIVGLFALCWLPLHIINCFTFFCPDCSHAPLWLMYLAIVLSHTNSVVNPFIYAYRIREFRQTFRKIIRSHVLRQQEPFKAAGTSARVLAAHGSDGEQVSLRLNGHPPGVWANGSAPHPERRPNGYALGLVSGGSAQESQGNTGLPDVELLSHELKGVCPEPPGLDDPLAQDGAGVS

What does the source list for `COc1ccc(-c2ccccc2)c2nc(NC(=O)c3ccc(F)cc3)[nH]c12` [compound 2, 4-Fluoro-N-(7-methoxy-4-phenyl-1H-benzoimidazol-2-yl)-benzamide]?
IC50 (human A2A receptor): < 10 nM; IC50 (human A3 receptor): < 10 nM; IC50 (A2B receptors): < 100 nM

With `COc1ccc(-c2ccccc2)c2nc(NC(=O)c3ccnc(Br)c3)[nH]c12` [compound 3, 2-Bromo-N-(7-methoxy-4-phenyl-1H-benzoimidazol-2-yl)-isonicotinamide] as the molecule, how does the IC50 (human A2A receptor) read?
The IC50 was < 10 nM.

What about the IC50 (human A3 receptor) of the same molecule?
Its IC50 is < 10 nM.

What about the IC50 (A2B receptors) of the same molecule?
The IC50 was < 100 nM.

With `COc1ccc(-c2ccccc2)c2nc(NC(=O)c3ccc(Br)nc3)[nH]c12` [compound 5, 6-Bromo-N-(7-methoxy-4-phenyl-1H-benzoimidazol-2-yl)-nicotinamide] as the molecule, how does the IC50 (human A2A receptor) read?
The IC50 was < 10 nM.

And the IC50 (human A3 receptor)?
The IC50 was < 10 nM.

And the IC50 (A2B receptors)?
The IC50 was < 100 nM.

Which IC50 (human A2A receptor) does the source give for `COc1ccc(C2CCCCC2)c2nc(NC(=O)c3ccnc(N4CCOCC4)c3)[nH]c12` [compound 17, N-(4-Cyclohexyl-7-methoxy-1H-benzoimidazol-2-yl)-2-morpholin-4-yl-isonicotinamide] here?
Its IC50 is < 10 nM.

What about the IC50 (human A3 receptor) of the same molecule?
The IC50 was < 1000 nM.

What about the IC50 (A2B receptors) of the same molecule?
Its IC50 is > 1000 nM.

Which results are given for `COc1ccc(-c2ccccc2)c2nc(NC(=O)N3CCC(C)CC3)[nH]c12` [compound 28, 4-Methyl-piperidine-1-carboxylic acid (7-methoxy-4-phenyl-1H-benzoimidazol-2-yl)-amide]?
IC50 (human A2A receptor): < 10 nM; IC50 (human A3 receptor): < 1000 nM; IC50 (A2B receptors): < 1000 nM

`COc1ccc(-c2cnn(C)c2)c2nc(NC(=O)c3ccnc(N4CCC(C)(O)C4)c3)[nH]c12` (stereo not drawn) [compound 30, 2-(3-Hydroxy-3-methyl-pyrrolidin-1-yl)-N-[7-methoxy-4-(1-methyl-1H-pyrazol-4-yl)-1H-benzoimidazol-2-yl]-isonicotinamide] was tested. Which IC50 (human A2A receptor) did it give?
Its IC50 is < 10 nM.

What about the IC50 (human A3 receptor) of the same molecule?
The IC50 was < 1000 nM.

What about the IC50 (A2B receptors) of the same molecule?
Its IC50 is > 1000 nM.

With `COc1ccc(-c2ccncc2)c2nc(NC(=O)c3ccc(CN(C)C)cc3)[nH]c12` [compound 89, 4-[(dimethylamino)methyl]-N-[7-methoxy-4-(pyridin-4-yl)-1H-1,3-benzodiazol-2-yl]benzamide] as the molecule, how does the IC50 (human A2A receptor) read?
Its IC50 is < 100 nM.

And the IC50 (human A3 receptor)?
The IC50 was > 1000 nM.

What about the IC50 (A2B receptors) of the same molecule?
The IC50 was < 1000 nM.

How did the IC50 (human A2A receptor) turn out when `COc1ccc(-c2cnn(C)c2)c2nc(NC(=O)c3cnc(C)o3)[nH]c12` [compound 215, N-[7-methoxy-4-(1-methyl-1H-pyrazol-4-yl)-1H-1,3-benzodiazol-2-yl]-2-methyl-1,3-oxazole-5-carboxamide] was run?
Its IC50 is < 10 nM.

And the IC50 (A2B receptors)?
Its IC50 is < 100 nM.

Which IC50 (human A2A receptor) does the source give for `COc1ccc(-c2cnn(CC(C)(C)O)c2)c2[nH]c(NC(=O)N3CCC(C)(O)CC3)nc12` [compound 238, 4-hydroxy-N-{7-[1-(2-hydroxy-2-methylpropyl)-1H-pyrazol-4-yl]-4-methoxy-1H-1,3-benzodiazol-2-yl}-4-methylpiperidine-1-carboxamide] here?
The IC50 was < 100 nM.

What about the IC50 (human A3 receptor) of the same molecule?
The IC50 was > 1000 nM.

For `COc1ccc(-c2cccc(F)c2)c2nc(NC(=O)c3cnn(C)c3)[nH]c12` [compound 239, N-[4-(3-fluorophenyl)-7-methoxy-1H-1,3-benzodiazol-2-yl]-1-methyl-1H-pyrazole-4-carboxamide], which IC50 (human A2A receptor) is on record?
The IC50 was < 10 nM.

What about the IC50 (A2B receptors) of the same molecule?
Its IC50 is < 10 nM.

`COc1ccc(-c2cnn(C)c2)c2nc(NC(=O)C3CNC(=O)C3)[nH]c12` (stereo not drawn) [compound 246, N-[7-methoxy-4-(1-methyl-1H-pyrazol-4-yl)-1H-1,3-benzodiazol-2-yl]-5-oxopyrrolidine-3-carboxamide] was tested. Which IC50 (human A2A receptor) did it give?
Its IC50 is < 100 nM.

And the IC50 (human A3 receptor)?
The IC50 was > 1000 nM.

Which results are given for `COc1ccc(-c2cnn(C)c2)c2nc(NC(=O)NCc3nccs3)[nH]c12` [compound 247, 3-[7-methoxy-4-(1-methyl-1H-pyrazol-4-yl)-1H-1,3-benzodiazol-2-yl]-1-[(1,3-thiazol-2-yl)methyl]urea]?
IC50 (human A2A receptor): < 100 nM; IC50 (human A3 receptor): > 1000 nM

`COc1ccc(-c2cnn(C)c2)c2nc(NC(=O)N[C@@H]3CNC[C@@H]3F)[nH]c12` [compound 249, 1-[(3R,4S)-4-fluoropyrrolidin-3-yl]-3-[7-methoxy-4-(1-methyl-1H-pyrazol-4-yl)-1H-1,3-benzodiazol-2-yl]urea] was tested. Which IC50 (human A2A receptor) did it give?
The IC50 was < 100 nM.

Which IC50 (human A2A receptor) does the source give for `COc1ccc(C2CCOCC2)c2nc(NC(=O)c3ccc(N4C(=O)CCC4=O)cc3)[nH]c12` [compound 250, 4-(2,5-dioxopyrrolidin-1-yl)-N-[7-methoxy-4-(oxan-4-yl)-1H-1,3-benzodiazol-2-yl]benzamide] here?
The IC50 was < 10 nM.

And the IC50 (human A3 receptor)?
Its IC50 is > 1000 nM.

And the IC50 (A2B receptors)?
Its IC50 is < 100 nM.

Which IC50 (human A2A receptor) does the source give for `COc1ccc(C2CCOCC2)c2nc(NC(=O)c3cccc(N=S(C)(C)=O)c3)[nH]c12` [compound 263, 3-{[dimethyl(oxo)-lambda6-sulfanylidene]amino}-N-[7-methoxy-4-(oxan-4-yl)-1H-1,3-benzodiazol-2-yl]benzamide] here?
Its IC50 is < 100 nM.

What about the IC50 (human A3 receptor) of the same molecule?
The IC50 was > 1000 nM.

What does the source list for `COCCn1cc(C(=O)Nc2nc3c(-c4ccc5cc[nH]c5c4)ccc(OC)c3[nH]2)cn1` [compound 280, N-[4-(1H-indol-6-yl)-7-methoxy-1H-1,3-benzodiazol-2-yl]-1-(2-methoxyethyl)-1H-pyrazole-4-carboxamide]?
IC50 (human A2A receptor): < 100 nM; IC50 (A2B receptors): < 100 nM

What does the source list for `COc1ccc(-c2ccccc2)c2nc(NC(=O)c3cnc4ccccn34)[nH]c12` [compound 286, N-(7-methoxy-4-phenyl-1H-1,3-benzodiazol-2-yl)imidazo[1,2-a]pyridine-3-carboxamide]?
IC50 (human A2A receptor): < 100 nM; IC50 (A2B receptors): < 100 nM

Which results are given for `COc1ccc(-c2ccccc2)c2nc(NC(=O)c3cnc4ncccn34)[nH]c12` [compound 289, N-(7-methoxy-4-phenyl-1H-1,3-benzodiazol-2-yl)imidazo[1,2-a]pyrimidine-3-carboxamide]?
IC50 (human A2A receptor): < 100 nM; IC50 (A2B receptors): < 10 nM

`COc1ccc(-c2ccccc2)c2nc(NC(=O)c3c[nH]c(-c4ccncc4)n3)[nH]c12` [compound 290, N-(7-methoxy-4-phenyl-1H-1,3-benzodiazol-2-yl)-2-(pyridin-4-yl)-1H-imidazole-4-carboxamide] was tested. Which IC50 (human A2A receptor) did it give?
The IC50 was < 100 nM.

And the IC50 (A2B receptors)?
Its IC50 is < 100 nM.

`COc1ccc(-c2ccnc(C)c2)c2[nH]c(NC(=O)c3c[nH]cn3)nc12` [compound 299, N-[4-methoxy-7-(2-methylpyridin-4-yl)-1H-1,3-benzodiazol-2-yl]-1H-imidazole-4-carboxamide] was tested. Which IC50 (human A2A receptor) did it give?
The IC50 was < 100 nM.

And the IC50 (A2B receptors)?
The IC50 was < 100 nM.

Which IC50 (human A2A receptor) does the source give for `COc1cc(C#N)c(-c2ccccc2)c2nc(NC(=O)c3cnn(C)c3)[nH]c12` [compound 300, N-(5-cyano-7-methoxy-4-phenyl-1H-1,3-benzodiazol-2-yl)-1-methyl-1H-pyrazole-4-carboxamide] here?
Its IC50 is < 100 nM.

And the IC50 (A2B receptors)?
The IC50 was < 100 nM.

How did the IC50 (human A2A receptor) turn out when `COCCn1cc(C(=O)Nc2nc3c(-c4ccn5ccnc5c4)ccc(OC)c3[nH]2)cn1` [compound 301, N-(4-{imidazo[1,2-a]pyridin-7-yl}-7-methoxy-1H-1,3-benzodiazol-2-yl)-1-(2-methoxyethyl)-1H-pyrazole-4-carboxamide] was run?
Its IC50 is < 100 nM.

And the IC50 (human A3 receptor)?
Its IC50 is < 1000 nM.

How did the IC50 (human A2A receptor) turn out when `COCCn1cc(C(=O)Nc2nc3c(-c4ccc5[nH]ccc5c4)ccc(OC)c3[nH]2)cn1` [compound 302, N-[4-(1H-indol-5-yl)-7-methoxy-1H-1,3-benzodiazol-2-yl]-1-(2-methoxyethyl)-1H-pyrazole-4-carboxamide] was run?
The IC50 was < 100 nM.

And the IC50 (A2B receptors)?
Its IC50 is < 100 nM.

With `COc1ccc(-c2ccc3[nH]ccc3c2)c2nc(NC(=O)N3CCC(C)(O)CC3)[nH]c12` [compound 303, 4-hydroxy-N-[4-(1H-indol-5-yl)-7-methoxy-1H-1,3-benzodiazol-2-yl]-4-methylpiperidine-1-carboxamide] as the molecule, how does the IC50 (human A2A receptor) read?
The IC50 was < 100 nM.

And the IC50 (human A3 receptor)?
The IC50 was > 1000 nM.

With `COc1ccc(-c2ccccc2)c2nc(NC(=O)c3cnn(C)c3)[nH]c12` [compound 306, N-(7-methoxy-4-phenyl-1H-1,3-benzodiazol-2-yl)-1-methyl-1H-pyrazole-4-carboxamide] as the molecule, how does the IC50 (human A2A receptor) read?
Its IC50 is < 100 nM.

And the IC50 (A2B receptors)?
Its IC50 is < 10 nM.

For `COCCn1cc(C(=O)Nc2nc3c(-c4ccccc4)ccc(OC)c3[nH]2)cn1` [compound 307, N-(7-methoxy-4-phenyl-1H-1,3-benzodiazol-2-yl)-1-(2-methoxyethyl)-1H-pyrazole-4-carboxamide], which IC50 (human A2A receptor) is on record?
The IC50 was < 100 nM.

What about the IC50 (A2B receptors) of the same molecule?
The IC50 was < 10 nM.

With `COc1ccc(-c2ccccc2)c2nc(NC(=O)c3cnc(C)o3)[nH]c12` [compound 308, N-(7-methoxy-4-phenyl-1H-1,3-benzodiazol-2-yl)-2-methyl-1,3-oxazole-5-carboxamide] as the molecule, how does the IC50 (human A2A receptor) read?
Its IC50 is < 100 nM.

What about the IC50 (A2B receptors) of the same molecule?
The IC50 was < 100 nM.

With `COc1ccc(-c2ccccc2)c2nc(NC(=O)c3ccc(C(=O)N(C)C)cc3)[nH]c12` [compound 309, N4-(7-methoxy-4-phenyl-1H-1,3-benzodiazol-2-yl)-N1,N1-dimethylbenzene-1,4-dicarboxamide] as the molecule, how does the IC50 (human A2A receptor) read?
Its IC50 is < 100 nM.

What about the IC50 (A2B receptors) of the same molecule?
The IC50 was < 10 nM.

Reference: patent publication US11453647B2, “Benzimidazole derivatives as adenosine receptor antagonists” (Merck Patent GmbH, priority 2017, dated 2022)
